The assay has as its target DNA polymerase β (Bos taurus, UniProt Q27958). Put plainly: [methyl-3H]TTP incorporation into activated DNA, DE81 paper disc. Format: biochemical.

A word on the IC50: it is the concentration that inhibits the measured activity by half.

Regarding `Nc1ccn([C@H]2CC[C@@H](COP(=O)(O)OP(=O)(O)OP(=O)(O)O)O2)c(=O)n1` [ddCTP], the IC50 turned out to be 240 µM.

For the compound `Nc1ccn([C@@H]2O[C@H](COP(=O)(O)OP(=O)(O)OP(=O)(O)O)[C@@H](O)C2(F)F)c(=O)n1` [dFdCTP], the IC50 stood at 450 µM.

The record behind these values is publication PMC5926742 (Japanese Journal of Cancer Research : Gann, 2001).
